# “Also recorded” adds a separate entry of the source. Where two headings read alike, the source gives them in different places.
# Assays:
# [1] = system: A. fumigatus; parameters: method as in Nesbitt et al. 2018; conditions: ref Nesbitt et al. 2018, cited from earlier work
# [2] = biological target: T1, Kdnase produced by A. fumigatus (AfK) (Aspergillus fumigatus, UniProt Q4WQS0); assay: Inhibition assay of recombinant AfK using 4MU-Kdn as substrate; format: biochemical; conditions: for mode of inhibition (Lineweaver-Burk plots) / fold lower IC50 value than that reported for Kdn2en 2: AfK; for fold lower IC50 value than that reported for Kdn2en 2: Kdn2en value from Yeung et al. 2013; for Hill coefficient: pH 4.0
# T1 construct: AfK was expressed and purified as described by Telford et al; made in house
# From the text: (§1) We purchase fresh commercial material for compounds 13 and 14 and performed inhibition assays using recombinant AfK (Methods, Fig. S8, Supporting Information). We determined IC50 values in quadruplicate using 4MU-Kdn as the substrate ([Yeung et al. 2013]). […] We submitted both compounds to a pan-assay interference compounds (PAINS) filter, a compilation of chemical substructures known to show promiscuous biological activities ([Baell and Nissink 2018]). […] We performed standard inhibition assays as described earlier using inhibitor 13 and these recombinant enzymes. […] We also tested inhibitor 13 with the sialidase MvNA, the closest structural homologue to AfK, that is known to cleave a multitude of substrates including Kdn glycosides ([Telford et al. 2011]).
# (§2) Each 200 μM reaction mixture was incubated at rt for 2 min prior to the addition of purified sialidase. Inhibitor was added to the reaction mixture and allowed to incubate at rt between 0–60 min in 100 mM sodium acetate buffer pH 4.0 and 0.01% BSA prior to the addition of substrate. The kinetic parameters were determined from initial rate measurements using a substrate concentration of Km/4. The progress of the reaction was continuously monitored for 15 min using a fluorescence spectrophotometer (BioTek Neo 2) and excitation and emission wavelengths of 360 and 450 nm, respectively.
# [3] = biological target: T2, AfK (Aspergillus fumigatus, UniProt Q4WQS0); assay: HTS assay of AfK activity using Kdn glycoside 4 (384-well, stop solution); format: biochemical; conditions: for inhibitory activity verified in repeat assay of HTS hits: TargetMol library pilot screen
# T2 construct: AfK was expressed and purified as described by Telford et al; made in house
# Description: We next miniaturized our assay for use in a 384-well microplate format by optimizing the quantity of detergent and checking for fluorescent signal stability (Figs 2A,S6 and S7 Supporting Information). In each well, we added a solution of buffer containing AfK (50 nM) and then added a library compound using a pin tool. We included both detergent (0.2% (v/v) Tween-20) and BSA (0.01% BSA) to reduce false positives arising from aggregation prone compounds ([Feng et al. 2007]). We then equilibrated the mixture prior to the addition of substrate 4, and the resultant solution was incubated for 1 h after which stop solution was added. To ensure cyclization was complete, the mixture was allowed to react for 1 h prior to measuring the fluorescence. Candidate hits identified in this primary screen were cherry picked and delivered into a gold plate that was used to confirm hits.
# To each well in a 384-well microplate, enzyme (20 μL of a 50 nM stock solution) in reaction buffer (100 mM NaOAc, 0.2% Tween-20, 0.01% BSA, pH 4) was added to a library compound (200 nL of 20 μM TargetMol, 10 μM Chembridge), and this mixture was incubated at rt for 1 h. Then, substrate 4 (20 μL of a 50 μM stock) was added and the resultant mixture was incubated at rt for an additional 1 hr. Following addition of stop solution (40 μL of 1 M aqueous K2CO3, pH ≈ 12) to the mixture the plate was incubated for 1 h at rt. Next, the fluorescence for each well was measured (BioTek Neo 2) using an excitation and an emission wavelength of 360 and 450 nm, respectively. The collected data was analyzed using Prism 7.0. We used the known mechanism-based inactivator 2,3-diF-Kdn (3) as the positive control ([Watts et al. 2006]; [Khazaei et al. 2015]). That is, using 2,3-diFKdn at a concentration of 30 μM, following a 10 min incubation, gives a background signal that equates to >90% inhibition.
# [4] = biological target: T2, AfK; assay: Differential scanning fluorimetry (DSF) thermal shift assay, AfK; format: binding; conditions: for effect on thermal stability of the folded enzyme (DSF, in words): AfK; for protein melting temperature (DSF, Table S3): inhibitor 500 µM, 100 mM pH 4.0 NaOAc, 5–10 µM enzyme; for ΔTm at 500 µM: read-out: Thermal shift (ΔTm) relative to DMSO (2.5%) control
# From the text: (§3) We next used a separate biophysical technique, differential scanning fluorimetry (DSF), to confirm that these compound bind to the various Kdnases. Specifically, we measured protein melting temperatures in the presence of Kdn2en (2) and candidate ligands 13 and 17 (Fig. 3D). […] We repeated this DSF assay on AtK and TrK and we observed similar trends in thermal shifts (Fig. S14 and Tables S2,S3 and S4, Supporting Information). […] Accordingly, further follow up on this compound would need to be pursued with an awareness of this possibility.
# (§4) Table S3. Differential scanning fluorometry-based (DSF) assay for inhibitors 2, 13, and 17 binding to Af, At, Tr and MvNA. Protein thermal shifts(ΔTm) using DMSO (2.5%), and inhibitors 2, 13, and 17 at 500 µM against the Kdnase of Af, At, Tr and MvNA. Assay done using 5–10 µM enzyme and 100 mM pH 4.0 NaOAc (pH 5.5 MvNA). A temperature range of 25°C to 95°C was used with a gradient of 0.05°C/sec. […]
# (§5) Table S4. Thermal shifts (ΔTm) for stabilization of AfK, AtK, TrK and MvNA on inhibitor binding relative to the DMSO (2.5%) control. […]
# [5] = system: AtK; assay: Differential scanning fluorimetry (DSF) thermal shift assay, AtK; format: binding, Aspergillus terreus; conditions: for Thermal shift (ΔTm) relative to DMSO (2.5%) control: Table S4; for Thermal shift (ΔTm) relative to DMSO (2.5%) control / protein melting temperature (DSF, Table S3): inhibitor 500 µM; for protein melting temperature (DSF, Table S3): 100 mM pH 4.0 NaOAc, 5–10 µM enzyme
# From the text: as §3, §4, §5
# [6] = system: TrK; assay: Differential scanning fluorimetry (DSF) thermal shift assay, TrK; format: binding, Trichophyton rubrum; conditions: for Thermal shift (ΔTm) relative to DMSO (2.5%) control: Table S4; for Thermal shift (ΔTm) relative to DMSO (2.5%) control / protein melting temperature (DSF, Table S3): inhibitor 500 µM; for effect on thermal stability of the folded enzyme (DSF, in words): TrK; for protein melting temperature (DSF, Table S3): 100 mM pH 4.0 NaOAc, 5–10 µM enzyme
# From the text: as §3, §4, §5
# [7] = biological target: neuraminidase MvNA (Micromonospora viridifaciens, UniProt Q02834); assay: Inhibition assay of the sialidase MvNA using Kdn4MU as substrate; format: biochemical; conditions: for Hill coefficient: Table 1, 37 °C, pH 5.5
# From the text: as §1
# Each 200 μM reaction mixture was incubated at rt for 2 min prior to the addition of purified sialidase. […] The kinetic parameters were determined from initial rate measurements using a substrate concentration of Km/4. The progress of the reaction was continuously monitored for 15 min using a fluorescence spectrophotometer (BioTek Neo 2) and excitation and emission wavelengths of 360 and 450 nm, respectively.
# [8] = biological target: Aspergillus terreus Kdnase (AtK) (Aspergillus terreus, UniProt Q0CMX0); assay: Inhibition assay of recombinant AtK using Kdn4MU as substrate; format: biochemical; conditions: for Hill coefficient: pH 4.0
# From the text: as §1, §2
# [9] = biological target: MvNA (Micromonospora viridifaciens, UniProt Q02834); assay: Differential scanning fluorimetry (DSF) thermal shift assay, MvNA; format: binding; conditions: inhibitor 500 µM; for ΔTm at 500 µM: Table S4, read-out: Thermal shift (ΔTm) relative to DMSO (2.5%) control; for protein melting temperature (DSF, Table S3): pH 5.5, 5–10 µM enzyme
# Description: as §4, §5
# [10] = biological target: Trichophyton rubrum Kdnase (TrK) (Trichophyton rubrum, UniProt A0A178EUH2); assay: Inhibition assay of recombinant TrK using Kdn4MU as substrate; format: biochemical; conditions: for Hill coefficient: pH 4.0
# From the text: as §1, §2
# [11] = Table 1, 37 °C, Kdn4MU substrate, NaOAc 100 mM pH 4.0, 0.01% BSA, read-out: IC50
# [12] = Table 1, calculated Ki = IC50/(([S]/Km) + 1), read-out: Ki
# [13] = Table S2, values from this work
# [14] = Table 1, calculated Ki = IC50/(([S]/Km) + 1)
# MvNA, sequence (Q02834 38-647): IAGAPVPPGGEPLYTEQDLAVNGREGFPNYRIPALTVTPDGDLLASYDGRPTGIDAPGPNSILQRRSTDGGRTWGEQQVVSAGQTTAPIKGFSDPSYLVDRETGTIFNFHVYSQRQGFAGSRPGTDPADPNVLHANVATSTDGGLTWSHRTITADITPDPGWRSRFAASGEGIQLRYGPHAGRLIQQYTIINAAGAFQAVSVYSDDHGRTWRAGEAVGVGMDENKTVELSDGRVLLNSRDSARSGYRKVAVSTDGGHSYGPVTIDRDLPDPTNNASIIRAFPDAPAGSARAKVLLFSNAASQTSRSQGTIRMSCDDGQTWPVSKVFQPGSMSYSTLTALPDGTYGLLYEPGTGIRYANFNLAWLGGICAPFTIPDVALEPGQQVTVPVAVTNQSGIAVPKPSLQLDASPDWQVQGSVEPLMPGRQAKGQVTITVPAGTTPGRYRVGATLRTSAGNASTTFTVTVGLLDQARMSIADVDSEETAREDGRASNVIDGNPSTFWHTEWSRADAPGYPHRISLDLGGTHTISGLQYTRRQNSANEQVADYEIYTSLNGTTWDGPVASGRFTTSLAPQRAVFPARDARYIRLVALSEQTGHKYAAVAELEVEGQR
# neuraminidase MvNA, sequence (Q02834 38-647): as above
# Aspergillus terreus Kdnase (AtK), sequence (Q0CMX0 entry or part of it): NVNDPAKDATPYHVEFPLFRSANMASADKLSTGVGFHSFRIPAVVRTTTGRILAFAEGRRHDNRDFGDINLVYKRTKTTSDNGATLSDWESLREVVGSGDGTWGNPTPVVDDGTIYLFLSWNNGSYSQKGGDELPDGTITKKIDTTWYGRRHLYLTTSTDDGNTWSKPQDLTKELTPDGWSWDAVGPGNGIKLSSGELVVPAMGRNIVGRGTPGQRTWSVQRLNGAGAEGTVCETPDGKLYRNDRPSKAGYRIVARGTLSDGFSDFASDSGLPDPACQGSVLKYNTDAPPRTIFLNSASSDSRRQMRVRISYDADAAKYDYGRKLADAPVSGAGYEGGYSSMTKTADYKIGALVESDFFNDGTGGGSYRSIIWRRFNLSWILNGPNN
# T1 sequence (Q4WQS0 21-406): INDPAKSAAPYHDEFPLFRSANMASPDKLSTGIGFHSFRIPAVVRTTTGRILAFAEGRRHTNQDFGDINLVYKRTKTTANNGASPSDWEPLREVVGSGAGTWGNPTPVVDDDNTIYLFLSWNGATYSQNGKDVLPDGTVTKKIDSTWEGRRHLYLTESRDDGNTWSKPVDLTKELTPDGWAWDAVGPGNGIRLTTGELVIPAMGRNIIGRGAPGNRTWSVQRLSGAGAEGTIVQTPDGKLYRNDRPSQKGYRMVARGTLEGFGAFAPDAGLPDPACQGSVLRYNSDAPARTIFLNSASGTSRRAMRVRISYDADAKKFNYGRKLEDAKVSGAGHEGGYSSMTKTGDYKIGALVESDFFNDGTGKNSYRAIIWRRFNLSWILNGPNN
# T2 sequence (Q4WQS0 21-406): as above
# Trichophyton rubrum Kdnase (TrK), sequence (A0A178EUH2 entry or part of it): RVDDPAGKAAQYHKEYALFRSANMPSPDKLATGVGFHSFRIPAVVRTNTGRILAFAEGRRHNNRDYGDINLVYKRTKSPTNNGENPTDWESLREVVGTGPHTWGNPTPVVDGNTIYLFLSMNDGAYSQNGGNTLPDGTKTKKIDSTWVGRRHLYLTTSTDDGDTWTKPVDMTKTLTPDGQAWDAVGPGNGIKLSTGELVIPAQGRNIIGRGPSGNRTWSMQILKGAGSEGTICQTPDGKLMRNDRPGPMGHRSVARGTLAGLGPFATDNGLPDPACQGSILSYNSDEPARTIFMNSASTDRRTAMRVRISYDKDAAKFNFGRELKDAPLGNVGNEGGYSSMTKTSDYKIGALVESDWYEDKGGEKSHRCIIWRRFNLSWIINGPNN
Compound,"effect on thermal stability of the folded enzyme (DSF, in words) [4]","protein melting temperature (DSF, Table S3) [4]",ΔTm at 500 µM [4],Thermal shift (ΔTm) relative to DMSO (2.5%) control [5],"protein melting temperature (DSF, Table S3) [5]",Thermal shift (ΔTm) relative to DMSO (2.5%) control [6],"effect on thermal stability of the folded enzyme (DSF, in words) [6]","protein melting temperature (DSF, Table S3) [6]",IC50 [7],Hill coefficient [7],"Hill coefficient ([8]; Table 1, 37 °C)",ΔTm at 500 µM [9],"protein melting temperature (DSF, Table S3) [9]","Hill coefficient ([10]; Table 1, 37 °C)",inhibitory activity verified in repeat assay of HTS hits [3],mode of inhibition (Lineweaver-Burk plots) [2],fold lower IC50 value than that reported for Kdn2en 2 [2],"IC50 [2, 11]","Hill coefficient ([2]; Table 1, 37 °C)","Hill [2, 13]",other results
C[C@@H]1[C@H](O)[C@@H](C)/C=C/C=C/C=C/C=C/C=C/C=C/C=C/[C@H](O[C@@H]2O[C@H](C)[C@@H](O)[C@H](N)[C@@H]2O)C[C@@H]2O[C@](O)(C[C@@H](O)C[C@@H](O)[C@H](O)CC[C@@H](O)C[C@@H](O)CC(=O)O[C@H]1C)C[C@H](O)[C@H]2C(=O)O [Amphotericin B],,,,,,,,,,,,,,,,,,,,,survival outcome ([1]; immunocompromised mice infected with AfK KO spores): improved survival rate; survival outcome ([1]; immunocompromised mice infected with wild-type (WT) A. fumigatus spores): complete mortality
"O=C(O)/C=C/c1ccc(O)c(O)c1 [caffeic acid, reference compound]",,,,,,,,,,,,,,,,,,,,,"IC50 ([2]; Fig. S10, read-out: IC50): ~500 µM"
"O=C(O)[C@]1(F)O[C@@H]([C@H](O)[C@H](O)CO)[C@H](O)[C@@H](O)[C@H]1F [compound 3, 2,3-diF-α-Kdn]",,,,,,,,,,,,,,,,,,,,,"inhibition at 30 µM ([3]; 30 μM, 10 min incubation): > 90%; activity at 30 µM ([3]; 30 μM, reacted with AfK for 10 min, read-out: fluorescent signal relative to the uninhibited sample): < 10%; Hill Slope ([3]; following incubation (10 min)): -1.2; IC50 ([3]; following incubation (10 min), read-out: apparent IC50): 3.1 µM"
"O=C(/C=C/c1ccc(O)c2c1[C@H](C(=O)O)[C@@H](c1ccc(O)c(O)c1)O2)O[C@H](Cc1ccc(O)c(O)c1)C(=O)O [compound 13, lithospermic acid]",stabilizes neither AfK; also recorded: no effect on the stability of AfK,51.4 ± 0.1 °C,-0.1 °C,–0.8 ± 0.1 °C,51.1 ± 0.1 °C,+13.7 ± 0.1 °C,does stabilize TrK,48.4 ± 0.1 °C,347 ± 2 µM,−0.90,−1.36,1 °C,54.9 ± 0.4 °C,−0.80,inhibit AfK,competitive inhibitors,24 fold,22.8 ± 1 µM,−1.32,–1.32,"IC50 [8]: 14.4 ± 0.07 µM; mode of inhibition ([8]; AtK): competitively inhibited; IC50 [10]: 11.8 ± 0.1 µM; mode of inhibition ([10]; TrK): competitively inhibited; Ki [2, 12]: 18.7 µM; time-dependent inhibition ([2]; time points 0, 10 and 60 mins, 50 µM Kdn4MU 1 substrate): no time dependent changes in calculated IC50 values"
"CC(C)(C)c1cc(C=C(C#N)C#N)cc(C(C)(C)C)c1O [compound 14, Tyrphostin A9, reference compound]",,,,,,,,,,,,,,,inhibit AfK,competitive inhibitors,,,,–0.92,IC50 [2]: 65.8 ± 1.7 µM; Ki [2]: 58.4 µM
O=C1NC[C@@]2(C(=O)O)CN(Cc3ccc(C4CCCCC4)s3)C[C@@H]12 [compound 17],stabilizes all three Kdnases; also recorded: positive unfolding temperature shifts,54.6 ± 0.1 °C,3.1 °C,+3.5 ± 0.1 °C,55.4 ± 0.1 °C,+16.2 ± 0.1 °C,stabilizes all three Kdnases,50.9 ± 0.1 °C,6.6 ± 0.6 µM,−0.89,−0.88,5.2 °C,59.1 ± 0.1 °C,−1.11,,competitive inhibitor,5 fold,115 ± 2 µM,−0.81,–0.81,"effect on thermal stability of the folded enzyme (DSF, in words) ([5]; AtK): stabilizes all three Kdnases; IC50 [8, 11]: 50 ± 1.2 µM; Ki [8, 14]: 38.5 µM; IC50 [10, 11]: 93.3 ± 0.8 µM; Ki [10, 14]: 73.3 µM; Ki [2, 12]: 74.7 µM; IC50 ([2]; Table S2, Kdn4MU substrate, sodium acetate 100 mM pH 4.0, 0.01% BSA, 37 C, values from this work, read-out: IC50): 115 ± 2 µM; inhibition of AfK in standard inhibition assay ([2]; purchased compounds, 4MU-Kdn 1 as substrate): inhibited AfK"
